We go through 1 compound from US20080280860A1, “Use of Vitamin D Compounds to Treat Endometriosis” (BioXell S.p.A., priority 2005, published 2008).

Holding throughout (assay type): cell-based
Experiment [1] concerns Ectopic endometrium stromal cells. Kind of experiment: Proliferation of endometrial stromal cells in vitro (CyQuant), ectopic. The note with it: 1 uM-0.1 nM, 48-96 hours; FIG. 2B; may be dose dependent. On the procedure:
(§1) Tissue was gently minced into small pieces (1 to 2 mm^3) and incubated at 37° C. for 1 h with 0.1% type A collagenase. At the end of the incubation, single stromal cells were separated from large clumps of epithelium by a 10 min. period of differential sedimentation at unity gravity. The top 8 ml of medium, containing predominantly stromal cells, were then slowly removed and the cells were collected by centrifugation. The stromal-enriched fraction was washed twice in culture medium and allowed to adhere selectively to tissue culture dishes for 15 min.
(§2) Thereafter, nonattached epithelial cells still present were removed and a purified stromal preparation was obtained on the surface of the culture dishes.
The cells were maintained in DMEM supplemented with 10% Fetal Bovine Serum (SIGMA) and 100 U/ml penicillin, 100 ug/ml streptomycin (GIBCO cat. no. 15140-122).
When the stromal cells were grown to confluence, were washed in PBS and then trypsinized using 1× trypsin/EDTA solution (PromoCell cat. no. C-41002). […] The proliferation was determined with CyQuant Cell Proliferation Assay (Molecular Probe cat. no. C7026). […]
The fluorescence was determined using a fluorescence microplate reader with filters appropriate for ˜480 nm excitation and ˜520 nm emission.

For the next experiment, the system named is stromal cells. The experiment is described as follows: Real Time PCR for gene expression quantification in cultured cells. As to conditions: 1 uM and 0.1 uM versus untreated. On the procedure:
as §1, §2
Cells were incubated at 37° C. in 3% FBS DMEM (without Compound A, with Compound A at 1 uM concentration or with Compound A at 0.1 uM concentration) or 10% FBS DMEM (without Compound A, with Compound A at 1 uM concentration or with Compound A at 0.1 uM concentration). After 4 or 8 hours of incubation cells were trypsinized and collected as a cell pellet.
For total RNA extraction it was used the RNeasy Mini Kit QIAGEN (cat. no. 74106) briefly described below.
Cells were distrupted by addition of Buffer RLT and the lysate was loaded onto a QlAshredder spin column (QIAGEN cat. no. 79656) placed in a 2 ml collection tube and centrifuged for 2 min at maximum speed. A volume of 70% ethanol was added to the homogenized lysate. The sample was loaded on an RNeasy mini column placed in a 2 ml collection tube and centrifuged for 15 sec at >10000 rpm. The RNA bound to the column was digested with a DNase treatment. The column was washed with Buffer RW1 and centrifuged for 15 sec at >10000 rpm. The sample was incubated with DNase I mix (RNase-Free Dnase Set QIAGEN cat. no. 79254) at room temperature for 15 min. […] RNA concentration was evaluated by NanoDrop Spectrophotometer […]
Real Time PCR was performed by using ABI PRISM 7000 Sequence Detection System (Applied Biosystems). […] The genes analysed included Vitamin D Receptor (VDR), Cytochrome P450 (CYP24), Vascular Endothelial Growth Factor (VEGF), Estrogen Receptor alpha (ERα), Estrogen Receptor beta (ERβ), Progesterone Receptor (PR), Aromatase (CYP19), Cyclooxygenase type 2 (COX-2), Interleukin-8 (IL-8), Tumor Necrosis Factor alpha (TNF α), Caspase-3 (CASP3), Caspase-6 (CASP6), Ki-67 Nuclear Antigen (Ki-67).
Samples were incubated 2 min at 50° C., 10 min at 95° C. and amplified for 40 cycles at 95° C. for 15 sec (denaturation) and at 60° C. for 1 min (annealing/extension). The amount of gene expression was normalized to rRNA 18S gene expression and the comparative CT methods (User Bulletin #2 ABI PRISM 7000 Sequence Detection System) was used for relative quantitation.

The subject of experiment [2] is human stromal endometrial cells. Kind of experiment: Cell chemotaxis assay (modified Boyden chamber). As to conditions: FIG. 10. On the procedure: as §1, with “Human stromal cell preparation: tissue was gently” for “Tissue was gently”, “from large dumps of epithelium” for “from large clumps of epithelium”, “15 min. Thereafter, non-attached epithelial cells still present were removed and a purified stromal preparation was obtained on the surface of the culture dishes.” for “15 min.”
Endometrial stromal cells migration was evaluated by means of chemotaxis experiments in a 48-well modified Boyden chamber. With the migration assay, we assessed the ability of the cells to migrate toward a chemo-attractant on a two-dimensional substrate (in our case, collagen type IV). […] The cells that had migrated to the lower side of the filter were stained with Diff-Quick stain (VWR Scientific Products, Bridgeport, N.J.), and 5-8 unit fields per filter were counted at 160× magnification using a Zeiss microscope. […]

Turning to `C=C1/C(=C\C=C2/CCC[C@]3(C)C([C@@H](C)C/C=C/C(O)(CC)CC)=CC[C@@H]23)C[C@@H](O)C[C@@H]1F` [Compound A, 1-alpha-fluoro-25-hydroxy-16,23E-diene-26,27-bishomo-20-epi-cholecalciferol], the “cell proliferation, Ectopic endometrium” value in experiment [1] is “reduction in cell proliferation”. Besides, the VDR expression entry with stromal cells (FIG. 3A) is listed as “Little or no change”. Further, in the experiment with stromal cells (FIG. 3B), the VEGF expression result was “Little or no change”. Moreover, in the experiment on stromal cells (FIG. 3C), the Cyp24 expression entry is reported as “marked upregulation”. The Cyp19 expression entry with stromal cells (FIG. 3D) is given as “Little or no change”. Also, the “reduction in migration with estrogen stimulation” value in experiment [2] (1 uM pretreatment 30 min, then β-Estradiol 24 h) was “approximately 50%”. Besides, the “basal condition of migration” value in experiment [2] (1 uM, without estrogen stimulation) was “No effect”.
